Assays:
β-catenin = assay: Western blot of cytosolic β-catenin in mouse calvarial primary preosteoblasts; type: cell-based; settings: concentration- and time-dependent
Method: Osteoblasts were isolated by digestion of calvaria of newborn mice as described (Wang et al., J. Clin. Invest. 117:1616-26 (2007)). Briefly, calvaria were incubated with 10 ml of digestion solution containing 1.8 mg/ml of collagenase type I (Worthington Biochemical Corp.; Lakewood, N.J.) for 15 minutes at 37° C. under constant agitation. The supernatant was then harvested, replaced with fresh collagenase and the digestion repeated an additional 4 times. Digestion solutions containing the osteoblasts were pooled together. After centrifugation, osteoblasts were obtained and cultured in α-Minimal Essential Media (MEM) containing 10% FBS and 1% penicillin/streptomycin at 37° C. in a humidified incubator supplied with 5% CO2.
Cells were harvested in cavitation buffer (5 mM HEPES, pH 7.4, 3 mM MgCl2, 1 mM EGTA, 250 mM sucrose) containing protease and phosphatase inhibitors and homogenized by nitrogen cavitation (200 p.s.i., for 5 minutes) in a cell disruption bomb (Parr Instrument Co.; Moline, Ill.). The cell homogenate was centrifuged twice at 700 g for 10 minutes to pellet the nuclei. The supernatant was further centrifuged at 100,000 g (Beckman SW50.1 rotor) for 1 hour to separate the membrane and cytosol fractions, and the resulting membrane pellet was washed three times with cavitation buffer before use in the assays (Zhang et al., Biochem. J. 343:541-9 (1999)). […]

PTH1R = target: T1, PTH1R (Homo sapiens, UniProt Q03431); assay: Co-immunoprecipitation of exogenous LRP5/LRP6 constructs with PTH1R in HEK293 cells; type: cell-based; settings: HEK293 cells
T1 sequence (Q03431 27-593): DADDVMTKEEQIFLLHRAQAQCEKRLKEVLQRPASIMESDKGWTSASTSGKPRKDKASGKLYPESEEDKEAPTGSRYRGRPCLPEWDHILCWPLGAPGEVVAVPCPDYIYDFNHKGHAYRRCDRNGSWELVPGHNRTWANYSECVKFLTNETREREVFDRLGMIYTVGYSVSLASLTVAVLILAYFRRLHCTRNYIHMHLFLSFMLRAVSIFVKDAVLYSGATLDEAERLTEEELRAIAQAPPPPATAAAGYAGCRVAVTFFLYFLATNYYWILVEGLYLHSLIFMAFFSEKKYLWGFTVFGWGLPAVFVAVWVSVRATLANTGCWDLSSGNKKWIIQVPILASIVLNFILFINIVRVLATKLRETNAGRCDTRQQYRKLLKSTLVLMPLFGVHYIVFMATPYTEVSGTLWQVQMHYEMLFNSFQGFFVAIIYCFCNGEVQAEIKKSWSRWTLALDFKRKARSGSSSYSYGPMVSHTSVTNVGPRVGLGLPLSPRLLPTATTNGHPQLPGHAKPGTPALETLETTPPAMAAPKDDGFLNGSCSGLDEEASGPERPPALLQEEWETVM
Description: PTH1R tagged with HA was subcloned into pcDNA3.1. cDNAs from human LRP5 (Mao et al., Mol. Cell. 7:801-9 (2001)) and LRP6 (Tamai et al., Nature 407:530-35 (2000)) tagged with HA and VSVG were subcloned into pCMV and pCS2^+, respectively. LRP6N+T (LRP6 N-terminal plus the transmembrane domain) and LRP6T+C (LRP6 transmembrane domain plus C-terminal) tagged with VSVG were subcloned into pCS2^+. LRP6N+1479m, LRP6N+1490m, LRP6N+1493m and LRP6N+1496m were generated by mutagenesis of either the serine (at amino acid 1490 or amino acid 1496) or threonine (at amino acid 1479 or amino acid 1493) to alanine LRP6N-IgG was generated by fusing the LRP6 extracellular domain with IgG (Tamai et al., Nature 407:530-35 (2000)). si-GFP (Wan et al., Am. J. Pathol. 166:1379-92 (2005)) and si-LRP6 plasmids were generated using a BS/U6 vector. Briefly, a 22-nucleotide oligo (oligo 1) corresponding to nucleotides 2981 to 3002 of the human LRP6 coding region was first inserted into the BS/U6 vector digested with ApaI (blunted) and HindIII. The inverted motif that contains the six-nucleotide spacer and five Ts (oligo 2) was then subcloned into the HindIII and EcoRI sites of the intermediate plasmid to generate BS/U6/LRP5/6.
(§1) Cells were harvested in cavitation buffer (5 mM HEPES, pH 7.4, 3 mM MgCl2, 1 mM EGTA, 250 mM sucrose) containing protease and phosphatase inhibitors and homogenized by nitrogen cavitation (200 p.s.i., for 5 minutes) in a cell disruption bomb (Parr Instrument Co.; Moline, Ill.). The cell homogenate was centrifuged twice at 700 g for 10 minutes to pellet the nuclei. The supernatant was further centrifuged at 100,000 g (Beckman SW50.1 rotor) for 1 hour to separate the membrane and cytosol fractions, and the resulting membrane pellet was washed three times with cavitation buffer before use in the assays (Zhang et al., Biochem. J. 343:541-9 (1999)). Immunoprecipitation and Western blot analysis of cell lysates were performed as described previously (Wan et al., Am. J. Pathol. 166:1379-92 (2005)).

LRP6 = LRP6 phosphorylation at PPPSP motifs, western blotting with Ab1490, UMR-106 cells; type: cell-based, rat; settings: UMR-106 cells, endogenous LRP6, Ab1490
Method: as §1
As phosphorylation of LRP6 at the PPPSP motifs plays a crucial role in activating downstream β-catenin signaling by Wnt, whether PTH induces phosphorylation of LRP6 at PPPSP motifs (Mao et al., Mol. Cell. 7:801-9 (2001); Tamai et al., Mol. Cell. 13:149-56 (2004); Davidson et al., Nature 438:867-72 (2005); Zeng et al., Nature 438:873-7 (2005)). Immunoprecipitated LRP6 from extracts of PTH-treated UMR-106 cells were monitored for their phosphorylation, by western blotting, with an antibody that recognizes phosphorylated PPPSP motifs (Ab1490) (Tamai et al., Mol. Cell. 13:149-56 (2004)). […] Phosphorylation of PPPSP motifs is required for axin recruitment from cytoplasm to LRP6 at cell membrane. […] Fz8CRD, a competitive inhibitor of the Wnt receptor Fz (Hsieh et al., Proc. Natl. Acad. Sci. USA 96:3546-55 (1999)), was used to exclude the possibility that these PTH effects are mediated through promotion of Wnts production or sensitization of Wnt-stimulated signaling. […] In contrast, LRP6N blocked PTH-stimulated LRP6 phosphorylation (FIG. 33).

axin-LRP6 binding = assay: Co-IP of axin binding to LRP6 in HEK293 cells; type: cell-based; settings: co-IP, HEK293 cells
Method: as §1

[1] = tested on: luciferase reporter bearing TCF/LEF binding elements; assay: TCF/LEF luciferase reporter assay in UMR-106 cells; type: cell-based, rat; settings: UMR-106 cells, agent alone
Description: HEK293, UMR-106 and mouse embryonic fibroblast (MEF) cells were maintained in Dulbecco's Modified Eagle Medium (DMEM) with 10% Fetal Calf Serum (FCS). Mouse Wnt3a conditioned medium (Wnt3a CM) was produced from mouse L cells stably transfected with mouse Wnt3a (American Type Culture Collection; Manassas, Va.) and control conditioned medium (Control CM) was from non-transfected L cells. IgG, LRP6N-IgG, DKK1, Sclerostin, VSVG-LRP6N and Myc-Fz8CRD conditioned media were produced from HEK 293 cells transfected with the individual plasmids. Transfections were carried out using lipofectamine reagent (Invitrogen; Carlsbad, Calif.). Luciferase assays were carried out in either UMR-106 or HEK 293 cells as described previously (Wan et al., Am. J. Pathol. 166:1379-92 (2005)), with 0.3 μg of TCF-Luc reporter plasmid plus 50 ng of Renilla luciferase plasmid (internal control) per well in the 12-well plate. Experiments were repeated at least three times with triplicate for each experiment.

- binding of exogenous PTH1R to exogenous LRP6 (PTH1R): enhances
- binding of LRP5 to PTH1R (PTH1R; exogenous LRP5 and PTH1R): did not enhance
Substance: Parathyroid hormone [PTH]
- levels of β-catenin in the cytosol (β-catenin): enhanced
- phosphorylation of LRP6 at the PPPSP motifs (LRP6): rapidly induced
- binding of axin to LRP6 (axin-LRP6 binding): rapidly increased
- transcription of a luciferase reporter bearing TCF/LEF binding elements [1]: stimulated
